One block for each substance: values may come before it.
How the values were obtained:
[1] = test system: C72 murine anti-DNA antibody; assay: Competitive inhibition of C72 binding to 5200, ELISA; settings: antibody incubated with inhibitor before ELISA
Description: Competitive Inhibition Assays:
In competitive inhibition assays, the antibodies were incubated with various concentrations of the inhibitor (for example: peptide, DNA, heparin) or with DNase for 45 minutes at room temperature and the remaining binding was then evaluated by ELISA as described heretofore.
% inhibition was computed as
O.D. binding without inhibitor-O.D. binding with inhibitor×100=%
inhibition O.D. binding without inhibitor
The binding of C72 to 5200 was tested before and after incubation with 5200, R38, R18, Heparin, DNA and DNase. […] The percent inhibition is the percent reduction of the O.D. after incubation with the inhibiting agent.

[2] = test system: murine urinary immunoglobulins; assay: Binding of murine urinary immunoglobulins, direct binding ELISA; design: species or system mice; settings: pooled urine
Description: (§1) Wells were coated with 10 μg/ml of the peptides, blocked with 1% BSA (bovine serum albumin) in PBS (pH 7,4), reacted with appropriately diluted serum or urine samples or monoclonal antibodies, incubated with anti-human or anti-mouse immunoglobulin enzyme conjugated to alkaline phosphatase and detected by addition of substrate (Sigma 100 Phosphatase Substrate Tablets) and color development using an Organon Teknika Microwell System spectrometer at wavelength of 405 nm.
Thus, pooled urine from at least 5 mice (either MRL/1pr/1pr or control mice, e.g. BALB/c) was added to wells coated with R38' (5200), R18 or DNA as described above and bound 5200 assayed by ELISA.
Binding of Murine Urinary Immunoglobulins To 5200
Each group is comprised of pooled urine.

[3] = test system: C72 murine anti-DNA antibody; assay: Direct binding ELISA of C72 to laminin peptides; settings: for binding of C72 murine anti-DNA antibody to peptide (FIG. 1): C72 conditioned medium in various dilutions in PBS; for C72 Binding: O.D. in a direct binding ELISA test after one (1) hour
Description: The C72 murine anti-DNA antibody has been derived from (NZBxNZW)F1 lupus mice by the hybridoma technique as described in Eilat D. et al J. Immunol. (1991) 147 361-368. The monoclonal anti-DNA antibodies DIL6 and B3 were derived from lupus patients by hybridoma technique as described in Ehrenstein M. R. et al J. Clin. Invest. (1994) 93 1787-1799 and Ehrenstein M. R. et al Kidney Inter. (1995) 48 705-711.
Anti-Peptide (Direct Binding) ELISA:
as §1
The interaction of the C72 murine anti-DNA antibody with laminin peptides was analyzed by ELISA as described above. The C72 conditioned medium was diluted in PBS in various dilutions.
The peptides of the present invention were tested for their ability to bind directly with C72 murine anti-DNA antibodies and B3 human anti-DNA antibodies according to the methods described hereinabove.

Substance: DNA [reference compound]
inhibition of the binding of C72 to 5200 (FIG. 2) [1]: inhibition
Binding of murine urinary immunoglobulins to antigen ([2]; BALB/c mice): U.D.
Binding of murine urinary immunoglobulins to antigen ([2]; MRL/lpr/lpr mice): U.D.

Substance: DNase
inhibition of the binding of C72 to 5200 (FIG. 2) [1]: not

Substance: heparin
inhibition of the binding of C72 to 5200 (FIG. 2) [1]: inhibition

The remaining lines, values ahead:

binding of C72 murine anti-DNA antibody to peptide (FIG. 1) [3]: binding
C72 Binding [3]: 0.75 O.D.
Substance: KONCLSSRASFRGCVRNLRLSR (PHTHSTSADTNDPIYVGGYPAH; UniProt P19137 3011-3032, looked up, fragment) [Peptide R30, mouse laminin α chain residues 3011-3032]

binding of C72 murine anti-DNA antibody to peptide (FIG. 1) [3]: not
C72 Binding [3]: 0.01 O.D.
Binding of murine urinary immunoglobulins to antigen ([2]; BALB/c mice): U.D.
Binding of murine urinary immunoglobulins to antigen ([2]; MRL/lpr/lpr mice): U.D.
Substance: RPVRHAQCRVCDGNSTNPRERH [Peptide R18, peptide from the N-terminal of mouse laminin α chain, residues 42-63]
